Structures are written as SMILES. Structures can show the parent of a compound that is named as a salt.

For test [1], the target named is T1, TBK1 (Homo sapiens, UniProt Q9UHD2).
T1 sequence (Q9UHD2 1-729): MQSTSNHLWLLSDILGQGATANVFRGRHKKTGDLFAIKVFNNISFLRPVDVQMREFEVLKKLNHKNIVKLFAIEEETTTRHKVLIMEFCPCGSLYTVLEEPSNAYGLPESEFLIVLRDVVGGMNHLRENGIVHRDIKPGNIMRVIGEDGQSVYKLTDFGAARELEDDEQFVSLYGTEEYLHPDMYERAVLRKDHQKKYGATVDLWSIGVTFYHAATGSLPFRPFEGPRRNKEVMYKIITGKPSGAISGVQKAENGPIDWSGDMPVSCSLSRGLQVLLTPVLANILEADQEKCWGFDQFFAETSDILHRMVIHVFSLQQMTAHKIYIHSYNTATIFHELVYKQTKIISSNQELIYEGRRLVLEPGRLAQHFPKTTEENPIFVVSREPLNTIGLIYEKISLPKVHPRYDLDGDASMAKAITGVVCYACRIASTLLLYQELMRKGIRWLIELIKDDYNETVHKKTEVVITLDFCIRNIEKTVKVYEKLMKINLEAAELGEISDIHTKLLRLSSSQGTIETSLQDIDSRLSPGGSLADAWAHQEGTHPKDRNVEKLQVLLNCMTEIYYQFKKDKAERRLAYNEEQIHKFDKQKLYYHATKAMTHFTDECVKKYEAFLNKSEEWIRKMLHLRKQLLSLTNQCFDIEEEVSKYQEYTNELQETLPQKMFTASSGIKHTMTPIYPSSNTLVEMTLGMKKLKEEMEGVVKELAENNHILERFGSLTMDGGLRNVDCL
As to the kind of experiment: TBK Biochemical Assay. The conditions noted are these: read-out: TBK1 IC50. The method, boiled down: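 Caliper LabChip mobility-shift readout of substrate and product after 90 min of TBK1 reaction at 25° C and stop-buffer addition. Compounds tested in 1:4 serial dilution over 10 points from 30 uM final at 1% DMSO; staurosporine 10 uM final defines full inhibition.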

Test [2] addresses T2, IKKε (Homo sapiens, UniProt Q14164).
T2 sequence (Q14164 1-716): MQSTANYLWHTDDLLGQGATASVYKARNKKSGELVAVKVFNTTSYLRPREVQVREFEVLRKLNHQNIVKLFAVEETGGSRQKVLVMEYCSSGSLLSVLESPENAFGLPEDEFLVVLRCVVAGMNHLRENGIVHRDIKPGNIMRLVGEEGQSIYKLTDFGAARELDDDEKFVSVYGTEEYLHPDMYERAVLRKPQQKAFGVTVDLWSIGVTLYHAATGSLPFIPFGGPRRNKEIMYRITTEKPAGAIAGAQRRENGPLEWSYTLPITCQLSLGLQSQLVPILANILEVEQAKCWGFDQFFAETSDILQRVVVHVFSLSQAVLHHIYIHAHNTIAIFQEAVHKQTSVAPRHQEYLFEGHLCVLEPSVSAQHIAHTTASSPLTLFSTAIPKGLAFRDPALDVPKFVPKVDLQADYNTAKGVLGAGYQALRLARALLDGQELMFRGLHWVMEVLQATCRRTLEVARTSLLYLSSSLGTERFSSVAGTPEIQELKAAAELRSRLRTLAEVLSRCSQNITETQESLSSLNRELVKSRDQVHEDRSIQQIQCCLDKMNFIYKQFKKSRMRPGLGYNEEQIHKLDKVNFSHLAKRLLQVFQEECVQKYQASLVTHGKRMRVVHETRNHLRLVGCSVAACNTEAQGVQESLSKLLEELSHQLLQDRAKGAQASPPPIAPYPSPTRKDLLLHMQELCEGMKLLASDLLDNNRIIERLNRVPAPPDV
As to the kind of experiment: IKKe Biochemical Assay. The conditions noted are these: read-out: IKKε IC50. The method, boiled down:
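Activity was measured as mobility-shift separation of phosphorylated from unphosphorylated substrate on a LabChip EZ Reader. Compound was titrated from 30 uM final in 10 points, 1:4 steps, with 1% DMSO, and enzyme plus substrate reacted 90 min at 25° C before stop buffer. Control wells held 10 uM staurosporine.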

On to `COc1cc(C(=O)N2CCCC2C(F)F)ccc1-c1cc2nccc(-c3ccc(OC4CCOCC4)c(C#N)c3)c2o1` (centres unmarked) [Compound 89, 5-{2-[4-(2-Difluoromethyl-pyrrolidine-1-carbonyl)-2-methoxy-phenyl]-furo[3,2-b]pyridin-7-yl}-2-(tetrahydro-pyran-4-yloxy)-benzonitrile], for which the IC50 in test [1] and in test [2] was below 100 nM each time.

Turning to `COc1cc(C(=O)N(C)CCO)ccc1-c1cc2ncc(C3CC3)c(-c3ccc(OC4CCOCC4)c(C#N)c3)c2o1` [Compound 306, 4-(7-(3-cyano-4-(tetrahydro-2H-pyran-4-yloxy)phenyl)-6-cyclopropylfuro[3,2-b]pyridin-2-yl)-N-(2-hydroxyethyl)-3-methoxy-N-methylbenzamide], the IC50 in test [1] and in test [2] was above 5000 nM throughout.

As for `COc1cc(C(=O)NC2CC3CCC2C3)ccc1-c1cc2nccc(-c3ccc(OC4CCOCC4)c(C#N)c3)c2o1` (centres unmarked) [Compound 496], the half-maximal inhibitory concentration (IC50) in test [1] and in test [2] was below 100 nM in each case.

Regarding `COc1cc(C(=O)NC2C3COCC32)ncc1-c1cc2nccc(-c3ccc(N4CC[C@@H](F)C4)c(C#N)c3)c2o1` (stereo partly drawn) [Compound 469, 5-(7-[3-cyano-4-[(3R)-3-fluoropyrrolidin-1-yl]phenyl]furo[3,2-b]pyridin-2-yl)-4-methoxy-N-[3-oxabicyclo[3.1.0]hexan-6-yl]pyridine-2-carboxamide], the IC50 in test [1] and in test [2] was below 100 nM each time.

Regarding `COc1cc(C(=O)N(C)C2CCNCC2)ccc1-c1cc2nccc(-c3ccc(OC4CCOCC4)c(C#N)c3)c2o1` [Compound 41, 4-(7-[3-Cyano-4-(tetrahydro-pyran-4-yloxy)-phenyl]-furo[3,2-b]pyridin-2-yl)-3-methoxy-N-methyl-N-piperidin-4-yl-benzamide hydrochloride], the IC50 in test [1] and in test [2] was below 100 nM in each case.

As to `COc1cc(C(=O)N2CC[C@H](O)C2)ccc1-c1cc2nccc(-c3ccc(NC4CCOCC4)c(C#N)c3)c2o1` [Compound 103, 5-{2-[4-((S)-3-Hydroxy-pyrrolidine-1-carbonyl)-2-methoxy-phenyl]-furo[3,2-b]pyridin-7-yl}-2-(tetrahydro-pyran-4-ylamino)-benzonitrile], the IC50 in test [1] and in test [2] was below 100 nM in each case.

For `COc1cc(C(=O)N2CC3CN(C)CC3C2)ncc1-c1cc2nccc(-c3ccc(N4CC[C@@H](F)C4)c(C#N)c3)c2o1` (stereo partly drawn) [Compound 453, 2-[(3R)-3-fluoropyrrolidin-1-yl]-5-[2-[4-methoxy-6-([5-methyl-octahydropyrrolo[3,4-c]pyrrol-2-yl]carbonyl)pyridin-3-yl]furo[3,2-b]pyridin-7-yl]benzonitrile], the half-maximal inhibitory concentration (IC50) in test [1] and in test [2] was below 100 nM throughout.

Consider `COc1cc(C(=O)N(C)C2CCN(C)C2)ccc1-c1cc2nccc(-c3ccc(OC4CCOCC4)c(C#N)c3)c2o1` (centres unmarked) [Compound 61, 4-{7-[3-Cyano-4-(tetrahydro-pyran-4-yloxy)-phenyl]-furo[3,2-b]pyridin-2-yl}-3-methoxy-N-methyl-N-(1-methyl-pyrrolidin-3-yl)-benzamide], for which the 50% inhibitory concentration (IC50) in test [1] and in test [2] was below 100 nM in each case.

As for `COc1cc(C(=O)N2CCC2)ccc1-c1cc2nccc(-c3ccc(OC4CCOCC4)c(C#N)c3)c2o1` [Compound 44, 5-{2-[4-(Azetidine-1-carbonyl)-2-methoxy-phenyl]-furo[3,2-b]pyridin-7-yl}-2-(tetrahydro-pyran-4-yloxy)-benzonitrile], the IC50 in test [1] and in test [2] was below 100 nM in each case.

For `COc1cc(C(=O)N2CCC(C)(O)C2)ccc1-c1cc2nccc(-c3ccc(OC4CCOCC4)c(C#N)c3)c2o1` (centres unmarked) [Compound 19, 5-{2-[4-(3-Hydroxy-3-methyl-pyrrolidine-1-carbonyl)-2-methoxy-phenyl]-furo[3,2-b]pyridin-7-yl}-2-(tetrahydro-pyran-4-yloxy)-benzonitrile], the IC50 in test [1] and in test [2] was below 100 nM in each case.

On to `COc1cc(C(=O)N(C)C)ccc1-c1cc2nccc(-c3ccc(NC4CC(C)OC(C)C4)c(C#N)c3)c2o1` (centres unmarked) [Compound 228, 4-(7-(3-cyano-4-(2,6-dimethyl-tetrahydro-2H-pyran-4-ylamino)phenyl)furo[3,2-b]pyridin-2-yl)-3-methoxy-N,N-dimethylbenzamide], for which the IC50 in test [1] was 100 to 1000 nM; in test [2] it was below 100 nM.

Turning to `COc1cc(C(=O)N(C)C)ccc1-c1cc2ncc(Cl)c(-c3ccc(OC4CCOCC4)c(C#N)c3)c2o1` [Compound 265, 4-(6-chloro-7-(3-cyano-4-(tetrahydro-2H-pyran-4-yloxy)phenyl)furo[3,2-b]pyridin-2-yl)-3-methoxy-N,N-dimethylbenzamide], the concentration for half-maximal inhibition (IC50) in test [1] and in test [2] was 100 to 1000 nM each time.

For `COc1cc(C(=O)N[C@@H]2CCNC[C@@H]2F)ccc1-c1cc2nccc(-c3cc(F)c(NC4CCOCC4)c(C#N)c3)c2o1` (single isomer, unassigned) [Compound 253, 4-(7-(3-cyano-5-fluoro-4-(tetrahydro-2H-pyran-4-ylamino)phenyl)furo[3,2-b]pyridin-2-yl)-N-(3-fluoropiperidin-4-yl)-3-methoxybenzamide hydrochloride], the IC50 in test [1] and in test [2] was below 100 nM throughout.

As to `N#Cc1cc(-c2ccnc3cc(-c4ccc(C(=O)O)cc4)oc23)ccc1Oc1ccccc1F` [Compound 169, 4-{7-[3-Cyano-4-(2-fluoro-phenoxy)-phenyl]-furo[3,2-b]pyridin-2-yl}-benzoic acid], the IC50 in test [1] and in test [2] was 100 to 1000 nM each time.

`COc1cc(C(=O)N(C)C)ccc1-c1cc2nccc(-c3ccc(O[C@@H]4[C@H](C)COC[C@@H]4C)c(C#N)c3)c2o1` [Compound 233, 4-(7-(3-cyano-4-(3,5-dimethyl-tetrahydro-2H-pyran-4-yloxy)phenyl)furo[3,2-b]pyridin-2-yl)-3-methoxy-N,N-dimethylbenzamide]: the 50% inhibitory concentration (IC50) in test [1] and in test [2] was below 100 nM each time.

Take `COc1cc(C(=O)N(C)CCO)cnc1-c1cc2ncc(C(C)C)c(-c3ccc(OC4CCOCC4)c(C#N)c3)c2o1` [Compound 333, 6-[7-[3-cyano-4-(oxan-4-yloxy)phenyl]-6-(propan-2-yl)furo[3,2-b]pyridin-2-yl]-N-(2-hydroxyethyl)-5-methoxy-N-methylpyridine-3-carboxamide]: the concentration for half-maximal inhibition (IC50) in test [1] and in test [2] was above 5000 nM throughout.

For `C[C@@H]1COC[C@H](C)[C@H]1Oc1ccc(-c2ccnc3cc(-c4ccc(C(=O)N(C)C)cc4)oc23)cc1C#N` (single isomer, unassigned) [Compound 219, 4-(7-(3-cyano-4-(3,5-dimethyl-tetrahydro-2H-pyran-4-yloxy)phenyl)furo[3,2-b]pyridin-2-yl)-N,N-dimethylbenzamide hydrochloride], the IC50 in test [1] and in test [2] was 100 to 1000 nM in each case.

Regarding `COc1cc(C(=O)N(C)CCO)cnc1-c1cc2ncc(C3CC3)c(-c3ccc(OC4CCOCC4)c(C#N)n3)c2o1` [Compound 363, 6-[7-[6-cyano-5-(oxan-4-yloxy)pyridin-2-yl]-6-cyclopropylfuro[3,2-b]pyridin-2-yl]-N-(2-hydroxyethyl)-5-methoxy-N-methylpyridine-3-carboxamide hydrochloride], the IC50 in test [1] and in test [2] was above 5000 nM each time.

`CN(C)C(=O)c1ccc(-c2cc3nccc(-c4ccc(OC5CCNCC5)c(C#N)c4)c3o2)cc1` [Compound 185, 4-{7-[3-Cyano-4-(piperidin-4-yloxy)-phenyl]-furo[3,2-b]pyridin-2-yl}-N,N-dimethyl-benzamide hydrochloride]: the IC50 in test [1] is 1000 to 5000 nM; in test [2], 100 to 1000 nM.

The values are drawn from patent US10428080B2, “TBK/IKK inhibitor compounds and uses thereof” (Merck Patent GmbH, priority 2015, dated 2019).
